In paper PMC5622936, “Novel Carbonyl Analogs of Tamoxifen: Design, Synthesis, and Biological Evaluation” (Frontiers in Chemistry, 2017):
Blank lines part the entries; values can stand above or below the molecule they belong to.

Assays:
ERα = biological target: T1, ERα (Homo sapiens, UniProt P03372); assay: fluorescence polarization competition, displacement of fluorescent estrogen ES2 (Beacon […]); assay type: binding; settings: 1 nM ES2 tracer, relative to estradiol = 100
T1 construct: gene ESR1; isolated recombinant human ERα (Invitrogen)
T1 sequence (P03372 1-595): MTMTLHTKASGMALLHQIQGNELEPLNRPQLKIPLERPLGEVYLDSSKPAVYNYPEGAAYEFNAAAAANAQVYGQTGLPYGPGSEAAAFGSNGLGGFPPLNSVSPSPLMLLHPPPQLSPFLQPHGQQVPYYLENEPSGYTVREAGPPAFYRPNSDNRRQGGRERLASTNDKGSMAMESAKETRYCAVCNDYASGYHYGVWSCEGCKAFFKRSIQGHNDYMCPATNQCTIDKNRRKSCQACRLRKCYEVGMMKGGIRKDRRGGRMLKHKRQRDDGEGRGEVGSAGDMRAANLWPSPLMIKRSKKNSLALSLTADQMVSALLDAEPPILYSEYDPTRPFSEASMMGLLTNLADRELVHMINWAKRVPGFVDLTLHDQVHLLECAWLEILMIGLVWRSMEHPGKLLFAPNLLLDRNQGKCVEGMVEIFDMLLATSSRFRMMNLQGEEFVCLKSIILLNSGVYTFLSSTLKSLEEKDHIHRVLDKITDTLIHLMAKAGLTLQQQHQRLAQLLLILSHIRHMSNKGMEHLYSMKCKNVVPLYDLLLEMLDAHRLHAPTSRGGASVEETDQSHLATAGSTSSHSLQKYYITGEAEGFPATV

ERβ = biological target: T2, ERβ (Homo sapiens, UniProt Q92731); assay: as above; assay type: binding; settings: 1 nM ES2 tracer, relative to estradiol = 100
T2 construct: gene ESR2; isolated recombinant human ERβ (Invitrogen)
T2 sequence (Q92731 whole entry): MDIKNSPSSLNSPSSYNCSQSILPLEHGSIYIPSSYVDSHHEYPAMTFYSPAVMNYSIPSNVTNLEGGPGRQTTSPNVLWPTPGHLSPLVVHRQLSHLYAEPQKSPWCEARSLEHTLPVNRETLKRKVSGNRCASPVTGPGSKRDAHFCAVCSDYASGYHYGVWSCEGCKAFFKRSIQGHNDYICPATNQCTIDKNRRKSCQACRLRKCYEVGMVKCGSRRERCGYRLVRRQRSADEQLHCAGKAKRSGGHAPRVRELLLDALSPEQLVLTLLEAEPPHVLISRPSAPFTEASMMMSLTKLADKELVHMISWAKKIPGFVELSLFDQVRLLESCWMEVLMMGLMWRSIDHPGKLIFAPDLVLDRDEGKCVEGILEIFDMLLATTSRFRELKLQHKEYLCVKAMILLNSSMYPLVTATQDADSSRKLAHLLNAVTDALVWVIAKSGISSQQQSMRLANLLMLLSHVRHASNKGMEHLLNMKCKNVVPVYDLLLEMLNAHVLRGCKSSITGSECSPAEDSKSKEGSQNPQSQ

Structure (SMILES): CCC(=C(c1ccc(O)cc1)c1ccc(C(=O)O)cc1)c1ccc(O)cc1 (mixture of isomers) [compound 10, 4-[1,2-bis-(4-hydroxy-phenyl)-but-1-enyl]-benzoic acid]
RBAα^a (ERα; E/Z isomer tested not stated): 12.2 ± 2.3 | RBAβ^a (ERβ; E/Z isomer tested not stated): 16.3 ± 3.9

Structure (SMILES): CC/C(=C(\c1ccc(O)cc1)c1ccc(OC(=O)CCl)cc1)c1ccc(O)cc1 [6a, Z-Chloro-acetic acid 4-[1,2 bis-(4-hydroxy-phenyl)-but-1-enyl]-phenyl ester]
RBAα^a (ERα): 120.08 ± 8.5 | RBAβ^a (ERβ): 62.14 ± 4.3

Structure (SMILES): CC/C(=C(\c1ccc(O)cc1)c1ccc(OC(=O)CBr)cc1)c1ccc(O)cc1 [6b, Z-Bromo-acetic acid 4-[1,2 bis-(4-hydroxy-phenyl)-but-1-enyl]-phenyl ester]
RBAα^a (ERα): 96.37 ± 7.2 | RBAβ^a (ERβ): 82.39 ± 4.9

Structure (SMILES): CC/C(=C(\c1ccc(O)cc1)c1ccc(C(=O)NCCBr)cc1)c1ccc(O)cc1 [compound 13, (E)-4-[1,2-bis-(4-hydroxy-phenyl)-but-1-enyl]-n-(2-bromo-ethyl)-benzamide]
RBAα^a (ERα): 17.4 ± 3.0 | RBAβ^a (ERβ): 8.40 ± 2.5

Structure (SMILES): CC/C(=C(\c1ccc(O)cc1)c1ccc(C(=O)NCCCBr)cc1)c1ccc(O)cc1 [compound 14, (E)-4-[1,2-bis-(4-hydroxy-phenyl)-but-1-enyl]-n-(3-bromo-propyl)-benzamide]
RBAα^a (ERα): 7.94 ± 0.6 | RBAβ^a (ERβ): 6.15 ± 0.6

Now from value to molecule:

RBAα^a (ERα): 101.35 ± 10.2 | RBAβ^a (ERβ): 72.72 ± 2.1
Structure (SMILES): CC/C(=C(\c1ccc(O)cc1)c1ccc(OC(=O)CN(C)C)cc1)c1ccc(O)cc1 [8a, Z-Dimethylamino-acetic acid 4-[1,2-bis-(4-hydroxy-phenyl)-but-1-enyl]-phenyl ester]

RBAα^a (ERα): 108.12 ± 11.9 | RBAβ^a (ERβ): 77.37 ± 4.5
Structure (SMILES): CC/C(=C(\c1ccc(O)cc1)c1ccc(OC(=O)CN(CC)CC)cc1)c1ccc(O)cc1 [8b, Z-Diethylamino-acetic acid 4-[1,2-bis-(4-hydroxy-phenyl)-but-1-enyl]-phenyl ester]

RBAα^a (ERα): 8.06 ± 0.9 | RBAβ^a (ERβ): 16.79 ± 1.4
Structure (SMILES): CC/C(=C(\c1ccc(O)cc1)c1ccc(OC(=O)CN2CCOCC2)cc1)c1ccc(O)cc1 [8c, Z-Morpholin-4-yl-acetic acid 4-[1,2-bis-(4-hydroxy-phenyl)-but-1-enyl]-phenyl ester]
